Data: publication PMC9290507, “Rh^II‐Catalyzed De‐symmetrization of Ethane‐1,2‐dithiol and Propane‐1,3‐dithiol Yields Metallo‐β‐lactamase Inhibitors” (Chemmedchem, 2021)

What was measured:
[1] = target: T1, NDM‐1 (Klebsiella pneumoniae, UniProt C7C422); assay: Fluorescence-based enzyme activity assay (Fluorocillin), NDM-1; format: biochemical
T1 construct: made in house
Method: (§1) In order to investigate the structure‐activity relationships of the dithiol library, we measured the inhibitory activity of 3 a–x in a fluorescence‐based enzyme activity assay (Table 1). Two relevant β‐lactamase isoforms, NDM‐1 and VIM‐1 were selected for in vitro assays. The fluorogenic substrate fluorocillin[15] was prepared according to literature and its conversion was monitored as described previously.[6] In general, a linear relationship between the potency of 3 a–x towards both enzymes could be observed, however, inhibitory potency towards VIM‐1 was almost tenfold higher (Figure 3). A very clear preference for the propane‐1,3‐dithiol over ethane‐1,2‐dithiol compounds could be observed from matched molecular pairs.
(§2) Activity assays for MBLs were performed at room temperature in black polystyrol 96well plates (Corning, Corning, NY, USA) using dicefalotinodifluorofluorescein (Fluorocillin) as a substrate. Proteins were diluted in assay buffer (HEPES 50 mM, pH 7.5 containing 0.01 %Triton X‐100), with final protein concentrations of NDM‐1: 3 nM, or VIM‐1: 4 nM. Samples were supplemented with an equimolar amount of ZnCl2. An amount of 1 μL of compounds 3 a–3 x at different concentrations was incubated with 89 μL of enzyme in assay buffer. After an incubation period of 30 min at room temperature, 10 μL of Fluorocillin substrate was added to yield the final assay volume of 100 μL. Final concentration of DMSO was 1 %. The fluorescence emitted by the fluorescent product difluorofluorescein was monitored every 45 s for 30 cycles using a Tecan fluorescent plate reader (Infinite 200; excitation at 495 nm and emission at 525 nm) and was compared with a standard curve. The rate of the enzymatic reaction was obtained by dividing the quantity of the fluorescent product (RFU) by time (min). Negative controls were measured in the absence of enzyme, whereas the positive controls were measured in the presence of enzyme and in the absence of inhibitors. The inhibitory effect of each substance was measured in triplicate in three independent experiments. IC50 values were calculated using data obtained from measurements with at least eight different inhibitor concentrations, applying a sigmoidal dose–response (variable slope with four parameters) equation using GraphPad Prism 5 (GraphPad Software, La Jolla, CA, USA) software. In order to investigate the inhibitory activity of 3 a, 3 o, or 3 s in the presence of a high Zn^2+ concentration, assay buffer containing an additional 100 μM ZnCl2 was used. The assay was performed as described above with NDM‐1 or VIM‐1 and 10 μM of 3 a, 3 o, or 3 s.

[2] = target: T2, VIM‐1 (Pseudomonas aeruginosa, UniProt A0A0F7KYQ8); assay: Fluorescence-based enzyme activity assay (Fluorocillin), VIM-1; format: biochemical
T2 construct: made in house
Method: as §1, §2

[3] = test system: E. coli NDM‐1 (T2359); assay: Intrinsic antimicrobial activity (MIC, CLSI microdilution), E. coli NDM-1; format: cell-based
Method: (§3) Minimal inhibitory concentrations (MICs) of imipenem monohydrate (Sigma‐Aldrich)±compound 3 a, 3 o, or 3 s against transformed E. coli strains producing NDM‐1 or VIM‐1 were determined according to microdilution method established by Clinical and Laboratory Standards Institute (CLSI).^20 The checkerboard assay was performed to test for synergy in vitro. The microtiter‐plates were set up with serial doubling dilutions of compound 3 a, 3 o, or 3 s (2‐128 mg/L) and imipenem (0.125‐128 mg/L).

[4] = test system: E. coli VIM‐1 (T2544); assay: Intrinsic antimicrobial activity (MIC, CLSI microdilution), E. coli VIM-1; format: cell-based; conditions: Escherichia coli
Method: as §3

[5] = test system: E. coli NDM‐1 (T2359); assay: Checkerboard synergy assay with imipenem, E. coli NDM-1; format: cell-based; conditions: for Imipenem MIC: E. coli NDM-1 (T2359)
Method: (§4) To investigate this, the MIC of imipenem or combined with various concentrations of compound 3a, 3o, or 3 s was determined against E. coli transformants producing NDM‐1 or VIM‐1 (Table 3 and 4).
as §3

[6] = test system: E. coli VIM‐1 (T2544); assay: Checkerboard synergy assay with imipenem, E. coli VIM-1; format: cell-based; conditions: for Imipenem MIC: E. coli VIM-1 (T2544)
Method: as §4, §3

[7] = target: T3, VIM‐2 (Escherichia coli, UniProt Q5U7L7); assay: Kd determination using isothermal titration calorimetry; format: binding; conditions: ITC, 250 μM compound into 50 μM VIM-2, 25 °C
T3 construct: made in house
Method: The next step was the investigation of the binding thermodynamics of 3 a, 3 o, and 3 s. For these experiments we used a closely related enzyme VIM‐2 which is an isoform of VIM‐1 and can be recombinantly expressed in very high concentrations, suitable tor isothermal titration calorimetry (ITC) experiments (Figure 6).
VIM‐2 expression and purification was published elsewhere.[19] Before the measurement the VIM‐2 protein was dialyzed against 500 times the volume of buffer (50 mM Tris, 500 mM NaCl, 5 % (v/v) glycerol with a pH=8) using a dialysis membrane with a 3.5 kDa MWCO. For the measurements the compounds 3 a, 3 o, or 3 s, respectively, were diluted using the dialyses buffer to a final concentration of 250 μM containing a final DMSO concentration of 1 %. The VIM‐2 protein was diluted to a final concentration of 50 μM, supplemented with 1 % DMSO using the dialysis buffer and pure DMSO. For the control measurements dialysis buffer was supplemented with pure DMSO to a final concentration of 1 %. The measurements were performed using an “Affinity ITC” (TA‐Instruments) in reversed mode, with a stir rate of 75 rpm and a temperature of 25 °C. The VIM‐2 was placed in the cell and the respective compound in the syringe. For blank measurements either the protein or compound dilution were exchanged with buffer containing 1 % DMSO. For the measurements of 3 a and 3 s one time 0.5 μl was injected followed by 50 injections of 2 μl with a spacing of 240 s. 3 o was measured with one injection of 0.5 μl followed by 35 injections of 2 μl with a spacing of 240 s. The data were analyzed using the “NanoAnalyze Data Analysis” software (version 3.10.0; TA‐Instruments).

[8] = 10 μM compound, additional 100 μM ZnCl2 in assay buffer
[9] = Escherichia coli, read-out: Imipenem MIC

T1 sequence (C7C422 29-270, looked up, species assumed): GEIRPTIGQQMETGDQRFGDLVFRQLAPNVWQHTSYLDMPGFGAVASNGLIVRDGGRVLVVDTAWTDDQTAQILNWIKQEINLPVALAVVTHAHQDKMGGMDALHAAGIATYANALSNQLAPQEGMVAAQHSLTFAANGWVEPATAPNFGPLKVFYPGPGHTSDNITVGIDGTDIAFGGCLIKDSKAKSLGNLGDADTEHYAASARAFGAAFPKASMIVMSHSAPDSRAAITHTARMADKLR

SMILES: Cc1ccc(C(=O)CSCCS)cc1 [3 b, 2‐((2‐Mercaptoethyl)thio)‐1‐(p–tolyl)ethanone]
- IC50 [1]: 3910 ± 420 nM
- IC50 [2]: 220 ± 30 nM

SMILES: CN(Cc1ccc(Cl)cc1)C(=O)CSCCS [3 w, N‐(4‐Chlorobenzyl)‐2‐((2‐mercaptoethyl)thio)‐N‐methylacetamide]
- IC50 [1]: 580 ± 30 nM
- IC50 [2]: 100 ± 10 nM

SMILES: CCOC(=O)C(SCCS)c1ccc([N+](=O)[O-])cc1 (stereo not drawn) [3 j, Ethyl 2‐((2‐mercaptoethyl)thio)‐2‐(4‐nitrophenyl)acetate]
- IC50 [1]: 1550 ± 420 nM
- IC50 [2]: 900 ± 60 nM

SMILES: O=C1C(SCCCS)CCN1c1nccs1 (stereo not drawn) [3 s, 3‐((3‐Mercaptopropyl)thio)‐1‐(thiazol‐2‐yl)pyrrolidin‐2‐one]
- MIC ([3]; Escherichia coli): > 512 µg/mL
- Intrinsic antimicrobial activity ([3]; compound alone, E. coli transformants producing NDM-1 or VIM-1 (Table 2)): no intrinsic antimicrobial activity
- IC50 [1]: 390 ± 50 nM
- Effect of added zinc ions on inhibitory activity (NDM-1) [1, 8]: does not impair the inhibitory activity
- MIC [4]: > 512 µg/mL
- Imipenem MIC ([5]; +2 μg/ml compound): 128 µg/mL
- Imipenem MIC ([5]; +4 μg/ml compound): 128 µg/mL
- Imipenem MIC ([5]; +8 μg/ml compound): 64 µg/mL
- Imipenem MIC ([5]; +16 μg/ml compound): 64 µg/mL
- Imipenem MIC ([5]; +32 μg/ml compound): 64 µg/mL
- Imipenem MIC ([5]; +64 μg/ml compound): 32 µg/mL
- Imipenem MIC ([5]; +128 μg/ml compound): 16 µg/mL
- Reduction of the MIC of imipenem ([5]; NDM-1 producing bacteria, maximal reduction): up to 8 fold
- IC50 [2]: 40 ± 10 nM
- Effect of added zinc ions on inhibitory activity (VIM-1) [2, 8]: does not impair the inhibitory activity
- Imipenem MIC ([6]; +2 μg/ml compound): 32 µg/mL
- Imipenem MIC ([6]; +4 μg/ml compound): 16 µg/mL
- Imipenem MIC ([6]; +8 μg/ml compound): 16 µg/mL
- Imipenem MIC ([6]; +16 μg/ml compound): 16 µg/mL
- Imipenem MIC ([6]; +32 μg/ml compound): 8 µg/mL
- Imipenem MIC ([6]; +64 μg/ml compound): 4 µg/mL
- Imipenem MIC ([6]; +128 μg/ml compound): 2 µg/mL
- Reduction of the MIC of imipenem ([6]; VIM-1 producing bacteria, maximal reduction): ≤ 32 fold
- ΔH [7]: -6.45 kcal/mol
- Kd ([7]; inset of Figure 6): 166 nM

SMILES: COc1ccc(C(=O)CSCCS)cc1 [3 f, 2‐((2‐Mercaptoethyl)thio)‐1‐(4‐methoxyphenyl)ethanone]
- IC50 [1]: 1340 ± 320 nM
- IC50 [2]: 180 ± 10 nM

SMILES: O=C(CSCCCS)c1ccc(F)cc1 [3 e, 1‐(4‐Fluorophenyl)‐2‐((3‐mercaptopropyl)thio)ethanone]
- IC50 [1]: 600 ± 30 nM
- IC50 [2]: 230 ± 50 nM

SMILES: Cc1ccc(S(=O)(=O)N2CCN(C(=O)CSCCS)CC2)cc1 [3 x, 2‐((2‐Mercaptoethyl)thio)‐1‐(4‐tosylpiperazin‐1‐yl)ethanone]
- IC50 [1]: 2400 ± 130 nM
- IC50 [2]: 400 ± 30 nM

SMILES: Cc1ccc(C(=O)CSCCCS)cc1 [3 c, 2‐((3‐Mercaptopropyl)thio)‐1‐(p–tolyl)ethanone]
- IC50 [1]: 250 ± 60 nM
- IC50 [2]: 70 ± 10 nM

SMILES: N#Cc1ccc(N2CCC(SCCS)C2=O)cc1 (stereo not drawn) [3 t, 4‐(3‐((2‐Mercaptoethyl)thio)‐2‐oxopyrrolidin‐1‐yl)benzonitrile]
- IC50 [1]: 1190 ± 120 nM
- IC50 [2]: 100 ± 20 nM

SMILES: COc1ccc(C(=O)CSCCCS)cc1 [3 g, 2‐((3‐Mercaptopropyl)thio)‐1‐(4‐methoxyphenyl)ethanone]
- IC50 [1]: 430 ± 20 nM
- IC50 [2]: 140 nM

SMILES: CN1CCC(SCCCS)C1=O (stereo not drawn) [3 m, 3‐((3‐Mercaptopropyl)thio)‐1‐methylpyrrolidin‐2‐one]
- IC50 [1]: 1580 ± 220 nM
- IC50 [2]: 180 nM

SMILES: COC(=O)C(SCCS)c1ccc(Cl)cc1 (stereo not drawn) [3 i, Methyl 2‐(4‐chlorophenyl)‐2‐((2‐mercaptoethyl)thio)acetate]
- IC50 [1]: 880 ± 160 nM
- IC50 [2]: 190 ± 10 nM

SMILES: O=C1C(SCCS)CCN1c1ccccc1 (stereo not drawn) [3 n, 3‐((2‐Mercaptoethyl)thio)‐1‐phenylpyrrolidin‐2‐one]
- IC50 [1]: 1410 ± 70 nM
- IC50 [2]: 80 nM

SMILES: CN(C(=O)CSCCS)[C@H]1CCCC[C@@H]1O (relative stereo) [3 v, N‐((1S*,2S*)‐2‐Hydroxycyclohexyl)‐2‐((2‐mercaptoethyl)thio)‐N‐methylacetamide]
- IC50 [1]: 5500 ± 300 nM
- IC50 [2]: 330 ± 20 nM

SMILES: O=C(CSCCS)c1ccc(Cl)cc1 [3 d, 1‐(4‐Chlorophenyl)‐2‐((2‐mercaptoethyl)thio)ethanone]
- IC50 [1]: 5630 ± 1190 nM
- IC50 [2]: 230 ± 10 nM

SMILES: O=C(CSCCCS)N1CCN(Cc2ccc(Cl)cc2)CC1 [3 u, 1‐(4‐(4‐Chlorobenzyl)piperazin‐1‐yl)‐2‐((3‐mercaptopropyl)thio)ethan‐1‐one]
- IC50 [1]: 3310 ± 120 nM
- IC50 [2]: 300 ± 20 nM

SMILES: O=C1C(SCCCS)CCN1c1cccc(C(F)(F)F)c1 (stereo not drawn) [3 q, 3‐((3‐Mercaptopropyl)thio)‐1‐(3‐(trifluoromethyl)phenyl)pyrrolidin‐2‐one]
- IC50 [1]: 480 ± 10 nM
- IC50 [2]: 70 ± 10 nM

SMILES: CCOC(=O)C(SCCCS)c1ccc([N+](=O)[O-])cc1 (stereo not drawn) [3 k, Ethyl 2‐((3‐mercaptopropyl)thio)‐2‐(4‐nitrophenyl)acetate]
- IC50 [1]: 7790 ± 1300 nM
- IC50 [2]: 730 ± 50 nM

SMILES: O=C1OCCC1SCCS (stereo not drawn) [3 h, 3‐((2‐Mercaptoethyl)thio)dihydrofuran‐2(3H)‐one]
- IC50 [1]: 3630 ± 470 nM
- IC50 [2]: 460 ± 30 nM

SMILES: O=C1C(SCCS)CCN1c1nccs1 (stereo not drawn) [3 r, 3‐((2‐Mercaptoethyl)thio)‐1‐(thiazol‐2‐yl)pyrrolidin‐2‐one]
- IC50 [1]: 1540 ± 30 nM
- IC50 [2]: 40 ± 20 nM

SMILES: O=C1C(SCCS)CCN1c1cccc(C(F)(F)F)c1 (stereo not drawn) [3 p, 3‐((2‐Mercaptoethyl)thio)‐1‐(3‐(trifluoromethyl)phenyl)pyrrolidin‐2‐one]
- IC50 [1]: 2080 ± 110 nM
- IC50 [2]: 220 ± 10 nM

SMILES: COC(=O)CC(SCCCS)C(=O)OC (stereo not drawn) [3 l, Dimethyl 2‐((3‐mercaptopropyl)thio)succinate]
- IC50 [1]: 440 ± 110 nM
- IC50 [2]: 40 ± 10 nM

SMILES: C[C@@H](O)[C@H]1C(=O)N2C(C(=O)O)=C(SCCN=CN)C[C@H]12 [Imipenem, imipenem, reference compound]
- MIC [5, 9]: 128 µg/mL
- MIC [6, 9]: 32 µg/mL
